Assay results as given in article PMC12388496, “Discovery of (E)-1,3-Diphenyl-2-Propen-1-One Derivatives as Potent and Orally Active NLRP3 Inflammasome Inhibitors for Colitis” (Molecules, 2025).

Key:
[1] = MTT assay, HepaRG cytotoxicity; assay type: cell-based; details: human, HepaRG cells, n = 3
Experimental: HepaRG cells in the logarithmic growth phase (10^5 cells/mL), inoculate them into a 96-well plate, and culture overnight in a 37 °C, 5% CO2 incubator. Add compounds at different concentrations and continue culturing for 24 h. Add 20 μL of MTT solution, incubate for 4 h, discard the supernatant, and add DMSO to dissolve.

[2] = test system: NLRC4 inflammasome; assay: NLRC4 inflammasome activation induced by S.typhi in BMDMs; assay type: cell-based, mouse; details: F14 10 μM, LPS-primed BMDMs
Excerpt: The NLRP3 inflammasome can be activated by various stimuli, such as microbial toxins and urate crystals. This process plays a central role in the pathogenesis of many inflammatory diseases. To assess whether F14 exerts a broad-spectrum inhibitory effect on NLRP3 inflammasome activation, we used three different activators—ATP, MSU, and Nigericin to stimulate BMDMs. […] Among the inflammasome family, NLRC4 and AIM2 are also protein complexes involved in the innate immune response, playing key roles in inflammatory regulation during infection and tissue damage. Poly (dA:dT) was used to induce AIM2 activation, while S.typhi was employed to stimulate NLRC4 activation.
The LPS concentration was 200 ng/mL to pretreat BMDM cells for 3 h, then F14 (10 μM) was added to treat the cells for 30 min, and then each inducer—Nigericin (10 μM, 0.5 h), ATP (2.5 mM, 0.5 h), MSU (150 μg/mL, 4 h), S.typhi (4 h), and poly-(dA:dT) (0.5 μg/mL, 4 h)—were added for stimulation. (A) F14 has a broad-spectrum inhibitory effect on NLRP3 inflammasome activation. (B) F14 has a specific inhibitory effect on NLRP3 inflammasome activation. Data are presented as the mean ± SEM (n = 3). *** p < 0.001 vs. the model group. NS, not significant.

[3] = test system: BMDM cells; assay: Flow cytometry apoptosis assay kit (pyroptosis) in BMDM cells under LPS/Nigericin; assay type: cell-based, mouse; details: vs LPS/Nigericin group, more pronounced at higher concentrations
Excerpt: Pyroptosis is a form of programmed cell death, typically triggered by the activation of inflammasomes within the cell. It is characterized by the rupture of the cell membrane, releasing cellular contents (such as Lactate Dehydrogenase, LDH), which enhances the inflammatory response. Unlike apoptosis, pyroptosis is initiated through the activation of inflammasomes, involving distinct molecular mechanisms, and is often accompanied by cell swelling and rupture. In contrast, apoptosis is triggered by the activation of Caspase-3, leading to systemic degradation within the cell while maintaining the integrity of the cell membrane. The cell undergoes controlled self-degradation without provoking an immune response. […]
Figure 4 F14 inhibits NLRP3 inflammasome activation, leading to cell pyroptosis. […] All values given are best readings. / LPS/Nigericin: Q1-UL 0.83%, Q1-UR 79.53%, Q1-LL 14.81%, Q1-LR 4.83% uncertain / F14 10 μM: Q1-UL 0.52%, Q1-UR 48.44%, Q1-LL 45.87%, Q1-LR 5.17% uncertain / F14 5 μM: Q1-UL 1.05%, Q1-UR 58.47%, Q1-LL 36.16%, Q1-LR 4.32% uncertain / F14 2.5 μM: Q1-UL 0.97%, Q1-UR 69.26%, Q1-LL 24.69%, Q1-LR 5.08% uncertain / The Control plot in panel A (Q1-UL 0.83%, Q1-UR 24.77%, Q1-LL 69.90%, Q1-LR 4.49%) is left out because it is not a substance. / LPS/Nigericin is the stimulus rather than a test compound. […]

[4] = test system: IL-1β secretion in THP-1 cells (NLRP3 inflammasome); assay: Inhibition of IL-1β secretion in THP-1 cells; assay type: cell-based; details: Homo sapiens, three independent experiments
Experimental: Through SAR analysis, we identified compound F14 as the target compound for further investigation. To further validate its activity, the half-inhibitory concentration (IC50) of compound F14 for IL-1β release was determined in the BMDM model. […] To more comprehensively assess the potential of compound F14, we further evaluated its inhibition of IL-1β in THP-1 cells.
Figure 3 F14 inhibits the secretion of IL-1β. (A) Detection of F14 inhibition of IL-1 β secretion in BMDM cells; (B) Detection of F14 inhibition of IL-1 β secretion in THP-1 cells. IC50 calculation and dose-response curve fitting were performed using GraphPad Prism (8.0) software. All data were obtained from three independent experiments.

[5] = test system: THP-1 cells; assay: LDH release assay; assay type: cell-based; details: NLRP3 inflammasome activation by LPS/Nigericin
Excerpt: Pyroptosis is a form of programmed cell death, typically triggered by the activation of inflammasomes within the cell. It is characterized by the rupture of the cell membrane, releasing cellular contents (such as Lactate Dehydrogenase, LDH), which enhances the inflammatory response. Unlike apoptosis, pyroptosis is initiated through the activation of inflammasomes, involving distinct molecular mechanisms, and is often accompanied by cell swelling and rupture. In contrast, apoptosis is triggered by the activation of Caspase-3, leading to systemic degradation within the cell while maintaining the integrity of the cell membrane. The cell undergoes controlled self-degradation without provoking an immune response. Inhibiting pyroptosis is crucial for alleviating inflammation and promoting tissue repair. To investigate the effect of compound F14 on pyroptosis, we employed flow cytometry and lactate dehydrogenase (LDH) release assays for systematic analysis. Flow cytometry was used to assess the impact of F14 on pyroptosis under inflammatory conditions.
Count the THP-1 cells and inoculate them into a 96-well plate. Add 50 ng/mL PMA and culture the cells at 37 °C in a 5% CO2 incubator for 24 h. Add LPS-containing medium and stimulate the cells for 3 h to induce an inflammatory response. Add F14 and incubate for 1 h, then add Nigericin and stimulate for 30 min to induce pyroptosis. […]

Cc1ccc(C(=O)/C=C/c2cccc(O)c2)c(C)c1 [Compound F14, (E)-1-(2,4-dimethylphenyl)-3-(3-hydroxyphenyl)propyl-2-en-1-one]
IC50 at 24 h [1]: > 50 µM
activation of NLRC4 inflammasome [2]: no effect
viable cell percentage and late apoptotic cell percentage [3]: significantly improved
IC50 [4]: 0.88 µM
LDH release [5]: decreased in a concentration-dependent manner
